Measurements as given in article PMC4835877, “HM71224, a novel Bruton’s tyrosine kinase inhibitor, suppresses B cell and monocyte activation and ameliorates arthritis in a mouse model: a potential drug for rheumatoid arthritis” (Arthritis Research & Therapy, 2016).

Columns and labels:
[1] = tested on: phosphorylation of Btk, PLC-γ2, Erk; assay: Phospho-flow cytometry of BCR-crosslinked human PBMCs; assay type: cell-based; details: anti-IgM F(ab')2
Description: For phospho-flow, B cells were activated by crosslinking their BCRs with anti-human IgM antibodies (10 μg/mL; BD Biosciences) for 10 minutes at 37 °C. Cells were then fixed with 2 % paraformaldehyde at 37 °C for 12 minutes, permeabilized, and stained with anti-CD3-FITC (SK7; BD Biosciences), anti-CD20-PerCP-Cy5.5 (H1; BD Biosciences), anti-pBtk (Y223)-Alexa647 (N35-86; BD Biosciences), anti-pPLCγ2 (Y759)-Alexa647 (K86-689.37; BD Biosciences), anti-pSTAT1 (Y701)-Alexa647 (4a; BD Biosciences), anti-pSTAT3 (Y705)-Alexa647 (4/P-STAT3; BD Biosciences), anti-pSTAT5 (Y694)-Alexa647 (47; BD Biosciences), and anti-pERK1/2 (T202/204)-Alexa647 (20A; BD Biosciences) antibodies. The cells were then washed and analyzed on an LSR II flow cytometer (BD Biosciences). Data were analyzed using FlowJo software, version 8.8 (Treestar, Ashland, OR, USA).

BTK = BTK (Homo sapiens, UniProt Q06187); assay: Kinome Binding Tree Spot analysis, Scan Max (DiscoveRx); parameters: purchased DiscoveRx (Scan Max panel); details: concentration of 2 μM
Chain of BTK (Q06187 whole entry): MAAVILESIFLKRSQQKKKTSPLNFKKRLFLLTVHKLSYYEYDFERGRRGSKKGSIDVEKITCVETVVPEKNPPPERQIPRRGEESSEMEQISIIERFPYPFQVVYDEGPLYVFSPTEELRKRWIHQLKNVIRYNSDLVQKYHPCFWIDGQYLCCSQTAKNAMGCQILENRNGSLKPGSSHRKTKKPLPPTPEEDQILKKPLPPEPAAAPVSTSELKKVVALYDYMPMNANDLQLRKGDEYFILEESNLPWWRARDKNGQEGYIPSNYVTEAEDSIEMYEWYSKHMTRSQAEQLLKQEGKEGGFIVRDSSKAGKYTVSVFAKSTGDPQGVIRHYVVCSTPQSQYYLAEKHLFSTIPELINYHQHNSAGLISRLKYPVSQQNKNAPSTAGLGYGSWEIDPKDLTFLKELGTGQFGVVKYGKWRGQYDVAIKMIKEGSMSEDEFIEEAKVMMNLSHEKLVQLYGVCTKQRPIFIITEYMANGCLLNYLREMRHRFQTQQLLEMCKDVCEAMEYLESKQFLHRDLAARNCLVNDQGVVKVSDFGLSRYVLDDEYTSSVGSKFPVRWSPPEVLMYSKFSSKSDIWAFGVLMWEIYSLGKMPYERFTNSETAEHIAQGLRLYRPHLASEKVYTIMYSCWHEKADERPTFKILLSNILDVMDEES

Kinome binding selectivity (BTK): selectively bound to Btk
SMILES: C=CC(=O)Nc1cccc(Oc2nc(Nc3ccc(N4CCN(C)CC4)cc3)nc3ccoc23)c1 [HM71224]
Phosphorylation of Btk and Erk by phospho-flow [1]: inhibited phosphorylation of BTK, and p-Erk in a dose-dependent manner
